Results on 4 compounds are retold here after patent US20200179273A1, “LONG-ACTION IMPLANT FOR TREATMENT OF INFECTIOUS DISEASES” (Merck Sharp & Dohme Corp., priority 2017, published 2020).

Series [1] can be described thus: In vitro drug release from compressed implants. It is filed as physicochemical. Conditions: compressed implant 80wt % drug, PBS with 0.2 or 5wt % SDS, 37° C., 50 rpm. Here is the method:
The in vitro release rate of the drug was determined by incubating individual implants in a glass vial with phosphate buffered saline (PBS) containing 0.2 or 5wt % sodium dodecyl sulfate (SDS) at 37° C., and 50 rpm shaking in an Innova 42 incubator. The volume of media was sufficient to maintain sink conditions. Sink conditions are defined as the drug concentration maintained at or below ⅓ of the maximum solubility. Samples were removed at selected time points, and centrifuged at 20,800×g for 8 min. The supernatant was analyzed by HPLC.

A short description of series [2]: Solubility of anti-tuberculosis compounds in PBS. It is filed as physicochemical. The note with it: aqueous buffer.
Series [3] in a line: In vivo drug release: drug concentration in blood plasma after subcutaneous implants. Also noted: species or system Wistar Han rat. Conditions: rat, three compressed implants subcutaneous; for concentration at 0.167 days / concentration at 0.25 days / concentration at 1 day / concentration at 2 days / concentration at 9 days / concentration at 16 days / concentration at 30 days / concentration at 44 days / concentration at 0.083 days / concentration at 58 days: Wistar Han, plasma, sc; for concentration at 0.167 days / concentration at 0.25 days / concentration at 1 day / concentration at 2 days / concentration at 9 days / concentration at 16 days / concentration at 30 days / concentration at 44 days: 60 mg/animal; for concentration at 0.083 days / concentration at 58 days: 60 mg. From the text:
For each implantation, a Wistar Han rat was anesthetized using isoflurane to effect prior to subcutaneous dose administration. Using a trocar needle, three implants from each formulation example above were placed subcutaneously in the intrascapular region of a rat. Three animals were used for each formulation. Animals were monitored until recovered. At indicated time points, samples of blood were obtained from anesthetized animals (using isoflurane) and processed to plasma for determination of drug concentration by LC/MS. Results are shown in the below table (Table 4).

[4] abbreviates: dissolution media PBS, 37° C., read-out: Solubility at 37° C.
[5] abbreviates: in phosphate buffered saline (PBS), read-out: aqueous solubility.

In brackets after ≈: the same amount, converted by molar mass. Read-outs that look alike come from different tables or passages of the source.

Regarding `C[C@]1(COc2ccc(N3CCC(Oc4ccc(OC(F)(F)F)cc4)CC3)cc2)Cn2cc([N+](=O)[O-])nc2O1` [delamanid], the results for the “Cumulative in vitro drug release Avg.” value in series [1] (1 day), in series [1] (11 days) and in series [1] (20 days) were 20.3%, 26.8% and 38.3%, respectively.
In general, solubility refers to how much of the substance goes into solution per volume. With `CO[C@H]1/C=C/O[C@@]2(C)Oc3c(C)c(O)c4c(c3C2=O)C2=NC3(CCN(CC(C)C)CC3)NC2=C(NC(=O)/C(C)=C\C=C\[C@H](C)[C@H](O)[C@@H](C)[C@@H](O)[C@@H](C)[C@H](OC(C)=O)[C@@H]1C)C4=O` [rifabutin], in series [2] (setting [4]), the solubility was 101 µg/mL (≈ 119 µM). For the same compound, in series [2] (setting [5]), the solubility is below 200 µg/mL. Also, the “Cumulative in vitro drug release Avg.” value in series [1] (1 day) amounted to 40.6%. Also, the “Cumulative in vitro drug release Avg.” value in series [1] (11 days) is on record as 107.7%. This compound yielded a concentration at 0.167 days in series [3] (0.167 days) of 164 nM. Further, the concentration at 0.25 days in series [3] (0.25 days) is 244 nM. Also, the concentration at 1 day in series [3] (1 day) worked out at 209 nM. Besides, the concentration at 2 days in series [3] (2 days) stood at 182 nM. Moreover, in series [3], the concentration at 9 days was determined as 119 nM, the concentration at 16 days was found to be 75.9 nM, the concentration at 30 days stood at 69.3 nM and the concentration at 44 days stood at 42.3 nM. In addition, the concentration at 58 days in series [3] was found to be 38.3 nM. The same compound returned a concentration at 0.083 days in series [3] (0.083 days) of 81.9 nM.
Take `COc1nc2ccc(Br)cc2cc1[C@@H](c1ccccc1)[C@@](O)(CCN(C)C)c1cccc2ccccc12` [bedaquiline]: the solubility in series [2] (setting [4]) was 129 µg/mL (≈ 232 µM); in series [2] (setting [5]) it was below 200 µg/mL. For the same compound, the “Cumulative in vitro drug release Avg.” value in series [1] (1 day) is on record as 10.9%; in series [1] (11 days) it was 41.4%; in series [1] (20 days), 57.2%. Moreover, the “Drug concentration in blood plasma Avg.” value in series [3] (0.083 days), in series [3] (0.167 days), in series [3] (0.25 days), in series [3] (1 day) and in series [3] (2 days) was “BLQ” each time. In series [3], this compound returned a concentration at 9 days of 81 nM. Besides, the concentration at 16 days in series [3] came to 63.6 nM. The compound also yielded a concentration at 30 days in series [3] of 51.7 nM. In series [3], this compound registered a concentration at 44 days of 70.3 nM. In series [3], this compound came in with a concentration at 58 days of 60.2 nM.
Consider `CO[C@H]1/C=C/O[C@@]2(C)Oc3c(C)c(O)c4c(O)c(c(/C=N/N5CCN(C6CCCC6)CC5)c(O)c4c3C2=O)NC(=O)/C(C)=C\C=C\[C@H](C)[C@H](O)[C@@H](C)[C@@H](O)[C@@H](C)[C@H](OC(C)=O)[C@@H]1C` [rifapentine], for which, in series [2] (setting [4]), the solubility turned out to be 134 µg/mL (≈ 153 µM). Moreover, the solubility in series [2] (setting [5]) is below 200 µg/mL. For the same compound, in series [3] (0.167 days), the concentration at 0.167 days worked out at 803 nM. The concentration at 0.25 days in series [3] (0.25 days) came out at 1250 nM. In series [3] (1 day), the concentration at 1 day worked out at 3530 nM. In addition, the concentration at 2 days in series [3] (2 days) is 5210 nM. In series [3], this compound gave a concentration at 9 days of 5980 nM, a concentration at 16 days of 2260 nM, a concentration at 30 days of 1010 nM and a concentration at 44 days of 1460 nM. In series [3], this compound came in with a concentration at 58 days of 477 nM. This compound also came in with a concentration at 0.083 days in series [3] (0.083 days) of 630 nM.
